Data as given in BigSolDB 2.1.

COC(=O)c1ccc2cc(C(=O)OC)ccc2c1
Conditions | solubility (mole fraction)
in DMAc, 299.11 K | 0.00345
in DMAc, 315.05 K | 0.0072
in DMAc, 320.35 K | 0.00895
in DMAc, 326.25 K | 0.0112
in DMAc, 330.38 K | 0.0129
in DMAc, 337.27 K | 0.0167
in DMAc, 342.39 K | 0.0202
in DMAc, 352.75 K | 0.0301
in DMAc, 358.55 K | 0.0377
in DMAc, 364.4 K | 0.0452
in DMAc, 370.8 K | 0.0573
in DMAc, 376.26 K | 0.0674
in DMAc, 381.71 K | 0.0814
in DMAc, 383.38 K | 0.0855
in DMAc, 387.01 K | 0.0963
in DMAc, 391.14 K | 0.107
in DMAc, 392.17 K | 0.112
in DMF, 303.31 K | 0.00253
in DMF, 309.36 K | 0.00341
in DMF, 317.9 K | 0.00521
in DMF, 329.65 K | 0.00884
in DMF, 335.43 K | 0.0116
in DMF, 342.21 K | 0.015
in DMF, 349.85 K | 0.0193
in DMF, 357.96 K | 0.0272
in DMF, 362.73 K | 0.0323
in DMF, 366.6 K | 0.0396
in DMF, 368.38 K | 0.0408
in DMF, 373.02 K | 0.0495
in DMF, 377.86 K | 0.0574
in DMF, 379.66 K | 0.0611
in DMF, 382.14 K | 0.0661
in DMF, 383.38 K | 0.0699
in DMSO, 298.28 K | 0.000669
in DMSO, 308.07 K | 0.00113
in DMSO, 316.57 K | 0.00179
in DMSO, 324.97 K | 0.00272
in DMSO, 340.85 K | 0.00537
in DMSO, 347.18 K | 0.00726
in DMSO, 353.35 K | 0.00952
in DMSO, 356.66 K | 0.0109
in DMSO, 365.19 K | 0.0157
in DMSO, 369.88 K | 0.016
in DMSO, 374.65 K | 0.0226
in DMSO, 386.85 K | 0.0352
in DMSO, 394.81 K | 0.0471
in DMSO, 405.07 K | 0.069
in NMP, 293.2 K | 0.0056
in NMP, 296.73 K | 0.00577
in NMP, 300.48 K | 0.00606
in NMP, 303.5 K | 0.00632
in NMP, 308.77 K | 0.00669
in NMP, 311.81 K | 0.00687
in NMP, 317.1 K | 0.0074
in NMP, 322.89 K | 0.00803
in NMP, 328.16 K | 0.00864
in NMP, 336.69 K | 0.00914
in NMP, 345.34 K | 0.0103
in NMP, 354.23 K | 0.0115
in NMP, 360.09 K | 0.0125
in NMP, 368.69 K | 0.0132
in NMP, 375.38 K | 0.016
in NMP, 383.36 K | 0.0167
in NMP, 393.2 K | 0.0195
in NMP, 404.46 K | 0.0251
in NMP, 409.92 K | 0.0271
in NMP, 414.36 K | 0.0299
in NMP, 418.83 K | 0.0328
in NMP, 423.7 K | 0.0379
in NMP, 425.77 K | 0.0399
in acetic acid, 292.49 K | 0.00051
in acetic acid, 295.65 K | 0.000621
in acetic acid, 300.35 K | 0.000804
in acetic acid, 306.86 K | 0.00116
in acetic acid, 311.63 K | 0.00147
in acetic acid, 316.5 K | 0.0019
in acetic acid, 320.65 K | 0.00232
in acetic acid, 323 K | 0.00254
in acetic acid, 329.15 K | 0.00381
in acetic acid, 333.47 K | 0.00428
in acetic acid, 337.2 K | 0.0051
in acetic acid, 343.3 K | 0.00657
in acetic acid, 350.13 K | 0.00833
in acetic acid, 357.38 K | 0.0113
in acetic acid, 362.8 K | 0.0143
in acetic acid, 366.66 K | 0.0169
in acetic acid, 372.51 K | 0.0217
in acetic acid, 375.64 K | 0.0248
in acetic acid, 381.78 K | 0.0304
in acetic acid, 385.96 K | 0.0352
in acetic acid, 392.47 K | 0.046
in acetic acid, 394.71 K | 0.0493
in acetic acid, 398.5 K | 0.0564
in acetic acid, 400.54 K | 0.0607
